Data from patent US20220340633A1 (Adepthera LLC, priority 2016, published 2022).
pEC50, pIC50: −log10 of the molar value. Entries after “also recorded” stand apart in the source; their conditions may differ. Positions of bridges follow the written chain, without caps; N, C: chain ends. Non-standard residues stand in square brackets, D forms with d. Residues, ends and D or L forms follow the SMILES beside them. *: point of attachment. Palmitoyl = CCCCCCCCCCCCCCCC(=O)*; AEEA = NCCOCCOCC(=O)O

Legend:
[1] = tested on: primary human lymphatic endothelia cells (HLEC); test: HLEC proliferation in medium with 2% FBS, MTS assay; details: 30, 100, and 300 nM, 72 hrs
Description: (§1) The cells were cultured for 72 hrs, and cell viability was assayed with the MTS assay (Promega).

[2] = tested on: primary human lymphatic endothelia cells (HLEC); test: HLEC survival in medium with 0.1% FBS, MTS assay; details: 30, 100, and 300 nM, 72 hrs
Description: as §1

[3] = target: T1, CLR/RAMP3 receptor (Homo sapiens, UniProt O60896+Q16602); test: cell-based
T1 sequence (Q16602 23-461): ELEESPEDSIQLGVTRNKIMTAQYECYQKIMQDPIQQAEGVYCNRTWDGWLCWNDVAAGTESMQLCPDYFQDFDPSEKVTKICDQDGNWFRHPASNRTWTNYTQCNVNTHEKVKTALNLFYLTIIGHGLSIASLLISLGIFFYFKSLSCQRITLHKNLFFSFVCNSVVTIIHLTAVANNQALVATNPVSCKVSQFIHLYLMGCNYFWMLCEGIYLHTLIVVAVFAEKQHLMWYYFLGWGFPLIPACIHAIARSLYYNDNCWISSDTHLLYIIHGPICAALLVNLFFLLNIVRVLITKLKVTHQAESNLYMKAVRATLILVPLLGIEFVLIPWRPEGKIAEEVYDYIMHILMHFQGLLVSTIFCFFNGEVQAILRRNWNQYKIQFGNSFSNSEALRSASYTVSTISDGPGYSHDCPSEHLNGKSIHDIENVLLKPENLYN
T1 sequence (O60896 24-148): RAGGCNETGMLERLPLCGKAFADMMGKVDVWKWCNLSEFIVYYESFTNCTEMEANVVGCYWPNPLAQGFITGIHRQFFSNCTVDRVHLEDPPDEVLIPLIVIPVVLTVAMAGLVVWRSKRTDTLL
Description: (§2) Using a receptor activation assay, the dose-dependent stimulatory response of peptide agonists of the present invention on a CLR/RAMP1 receptor, a CLR/RAMP2, or a CLR/RAMP3 receptor complex was determined. A cell line carrying the recombinant CLR/RAMP1, CLR/RAMP2, or a CLR/RAMP3 receptor was employed in the assay. Peptide agonist activities were tested, in duplicate, at 10 different concentrations, starting with 1.0 μM and serially diluted 3-fold, in DMSO. […] The CLR/RAMP1 cAMP, CLR/RAMP2 arrestin assays, and CLR/RAMP3 cAMP (DiscoveRx, Fremont, Calif.) were used.
(§3) For the analysis of antagonistic activity, the synthetic analogs were pre-incubated with the cells before adding the reference ligand at its EC80.

[4] = target: T2, CLR/RAMP1 receptor (Homo sapiens, UniProt O60894+Q16602); details: CLR/RAMP1 versus CLR/RAMP2
T2 sequence (Q16602 23-461): as the sequence (Q16602 23-461) above
T2 sequence (O60894 27-148): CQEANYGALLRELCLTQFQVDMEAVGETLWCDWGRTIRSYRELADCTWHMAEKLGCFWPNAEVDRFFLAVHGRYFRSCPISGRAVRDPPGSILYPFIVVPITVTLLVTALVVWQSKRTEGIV
Description: as §2, §3

[5] = target: T3, CLR/RAMP2 receptor (Homo sapiens, UniProt O60895+Q16602); test: CLR/RAMP2 arrestin receptor activation assay (agonist); format: cell-based; details: for Emax: CHO-K1, read-out: CLR/RAMP 2 Max Activity % of positive control, CHO-K1 cells, % of positive control (ADM)
T3 construct: host or cells: CHO-K1 cells
T3 sequence (Q16602 23-461): as the sequence (Q16602 23-461) above
T3 sequence (O60895 43-175): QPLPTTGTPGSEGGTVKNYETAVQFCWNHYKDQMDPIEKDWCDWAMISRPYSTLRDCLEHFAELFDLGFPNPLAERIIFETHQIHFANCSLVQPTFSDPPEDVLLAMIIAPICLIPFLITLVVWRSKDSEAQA
Description: as §2

[6] = target: T1, CLR/RAMP3 receptor; test: CLR/RAMP3 cAMP receptor activation assay (agonist); format: cell-based; parameters: host or cells: CHO-K1 cells; details: CHO-K1, read-out: CLR/RAMP 3 Max Activity % of positive control
Description: as §2

[7] = target: T2, CLR/RAMP1 receptor; test: CLR/RAMP1 cAMP receptor activation assay (agonist); format: cell-based; parameters: host or cells: 1321N1 cells; details: for Emax: 1321-N1, read-out: CLR/RAMP 1 Max Activity % of positive control, 1321N1 cells, % of positive control (β-CGRP)
Description: as §2

CC[C@H](C)[C@H](NC(=O)[C@H](CCC(N)=O)NC(=O)[C@H](Cc1c[nH]cn1)NC(=O)[C@H](C)NC(=O)[C@H](CC(C)C)NC(=O)[C@H](CCCCN)NC(=O)[C@H](CCC(N)=O)NC(=O)[C@@H](NC(=O)[C@@H](NC(=O)[C@@H]1CSSC[C@H](NC(=O)CNC(=O)[C@H](Cc2ccccc2)NC(=O)[C@H](CO)NC(=O)[C@H](CCCNC(=N)N)NC(=O)[C@H](CC(C)C)NC(=O)CNC(=O)[C@H](CCC(N)=O)NC(=O)[C@H](Cc2ccccc2)NC(=O)[C@H](CC(N)=O)NC(=O)[C@H](CC(N)=O)NC(=O)[C@H](CCSC)NC(=O)[C@H](CO)NC(=O)[C@H](CCC(N)=O)NC(=O)[C@H](CCCNC(=N)N)NC(=O)[C@H](Cc2ccc(O)cc2)NC(C)=O)C(=O)N[C@@H](CCCNC(=N)N)C(=O)N[C@@H](Cc2ccccc2)C(=O)NCC(=O)N[C@@H]([C@@H](C)O)C(=O)N1)[C@@H](C)O)C(C)C)C(=O)N[C@@H](Cc1ccc(O)cc1)C(=O)N[C@@H](CCC(N)=O)C(=O)N[C@@H](Cc1ccccc1)C(=O)N[C@H](C(=O)N[C@@H](CC(=O)O)C(=O)N[C@@H](CCCCN)C(=O)N[C@@H](CC(=O)O)C(=O)N[C@@H](CCCCN)C(=O)N[C@@H](CC(=O)O)C(=O)N[C@@H](CC(N)=O)C(=O)N[C@H](C(=O)N[C@@H](C)C(=O)N1CCC[C@H]1C(=O)N[C@@H](CCCNC(=N)N)C(=O)N[C@@H](CO)C(=O)N[C@@H](CCCCN)C(=O)N[C@H](C(=O)N[C@@H](CO)C(=O)N1CCC[C@H]1C(=O)N[C@@H](CCC(N)=O)C(=O)NCC(=O)N[C@@H](Cc1ccc(O)cc1)C(N)=O)[C@@H](C)CC)C(C)C)[C@@H](C)O [SEQ ID NO: 54, reference compound]
HLEC proliferation (in words) [1]: minimal effects; also recorded: negligible effects | HLEC survival (in words) [2]: minimal effects; also recorded: negligible effects

CCCCCCCCCCCCCCCC(=O)N[C@@H](CCCCN)C(=O)N[C@H](C(=O)N[C@@H](CCC(N)=O)C(=O)N[C@@H](CCCCN)C(=O)N[C@@H](CC(C)C)C(=O)N[C@@H](C)C(=O)N[C@@H](Cc1c[nH]cn1)C(=O)N[C@@H](CCC(N)=O)C(=O)N[C@H](C(=O)N[C@@H](Cc1ccc(O)cc1)C(=O)N[C@@H](CCC(N)=O)C(=O)N[C@@H](Cc1ccccc1)C(=O)N[C@H](C(=O)N[C@@H](CC(=O)O)C(=O)N[C@@H](CCCCN)C(=O)N[C@@H](CC(=O)O)C(=O)N[C@H](C(=O)N[C@@H](C)C(=O)N1CCC[C@H]1C(=O)N[C@@H](CCCNC(=N)N)C(=O)N[C@@H](CO)C(=O)N[C@@H](CCCCN)C(=O)N[C@H](C(=O)N[C@@H](CO)C(=O)N1CCC[C@H]1C(=O)N[C@@H](CCC(N)=O)C(=O)NCC(=O)N[C@@H](Cc1ccc(O)cc1)C(N)=O)[C@@H](C)CC)C(C)C)[C@@H](C)O)[C@@H](C)CC)C(C)C [SEQ ID NO: 119]
pIC50 [3]: 8.04 to 9.10 | receptor specificity of antagonist [4]: CLR/RAMP2-specific

CCCCCCCCCCCCCCCC(=O)NCCCC[C@H](NC(=O)COCCOCCN)C(=O)NCC(=O)N[C@H]1CSSC[C@@H](C(=O)N[C@H](C(=O)N[C@H](C(=O)N[C@@H](CCC(N)=O)C(=O)N[C@@H](CCCCN)C(=O)N[C@@H](CC(C)C)C(=O)N[C@@H](C)C(=O)N[C@@H](Cc2c[nH]cn2)C(=O)N[C@@H](CCC(N)=O)C(=O)N[C@H](C(=O)N[C@@H](Cc2ccc(O)cc2)C(=O)N[C@@H](CCC(N)=O)C(=O)N[C@@H](Cc2ccccc2)C(=O)N[C@H](C(=O)N[C@@H](CC(=O)O)C(=O)N[C@@H](CCCCN)C(=O)N[C@@H](CC(=O)O)C(=O)N[C@@H](CO)C(=O)N[C@@H](C)C(=O)N2CCC[C@H]2C(=O)N[C@H](C(=O)N[C@@H](CC(=O)O)C(=O)N2CCC[C@H]2C(=O)N[C@@H](CO)C(=O)N[C@@H](CO)C(=O)N2CCC[C@H]2C(=O)N[C@@H](Cc2c[nH]cn2)C(=O)N[C@@H](CO)C(=O)N[C@@H](Cc2ccc(O)cc2)C(N)=O)C(C)C)[C@@H](C)O)[C@@H](C)CC)C(C)C)[C@@H](C)O)NC(=O)[C@H]([C@@H](C)O)NC(=O)CNC(=O)[C@H](Cc2ccccc2)NC(=O)[C@H](CCCNC(=N)N)NC1=O [SEQ ID NO: 48] (H-[AEEA]K(Palmitoyl)GCRFGTCTVQKLAHQIYQFTDKDSAPVDPSSPHSY-NH2; disulfide 4-9)
Emax [5]: 77% | pEC50 ([5]; CHO-K1 cells stably expressing CLR/RAMP2, arrestin, positive control ADM, read-out: CLR/RAMP 2 EC50): 9.70 | Emax [6]: 141% | Emax [7]: 78% | pEC50 ([7]; 1321N1 cells stably expressing CLR/RAMP1, cAMP, positive control β-CGRP, read-out: CLR/RAMP 1 EC50): 9.52

CCCCCCCCCCCCCCCC(=O)NCCCC[C@H](NC(=O)COCCOCCN)C(=O)NCC(=O)N[C@H]1CSSC[C@@H](C(=O)N[C@H](C(=O)N[C@H](C(=O)N[C@@H](CCC(N)=O)C(=O)N[C@@H](CCCCN)C(=O)N[C@@H](CC(C)C)C(=O)N[C@@H](C)C(=O)N[C@@H](Cc2c[nH]cn2)C(=O)N[C@@H](CCC(N)=O)C(=O)N[C@H](C(=O)N[C@@H](Cc2ccc(O)cc2)C(=O)N[C@@H](CCC(N)=O)C(=O)N[C@@H](Cc2ccccc2)C(=O)N[C@H](C(=O)N[C@@H](CC(=O)O)C(=O)N[C@@H](CCCCN)C(=O)N[C@@H](CC(=O)O)C(=O)N[C@H](C(=O)N[C@@H](C)C(=O)N2CCC[C@H]2C(=O)N[C@@H](CCCNC(=N)N)C(=O)N[C@@H](CO)C(=O)N[C@@H](CCCCN)C(=O)N[C@H](C(=O)N[C@@H](CO)C(=O)N2CCC[C@H]2C(=O)N[C@@H](CCC(N)=O)C(=O)NCC(=O)N[C@@H](Cc2ccc(O)cc2)C(N)=O)[C@@H](C)CC)C(C)C)[C@@H](C)O)[C@@H](C)CC)C(C)C)[C@@H](C)O)NC(=O)[C@H]([C@@H](C)O)NC(=O)CNC(=O)[C@H](Cc2ccccc2)NC(=O)[C@H](CCCNC(=N)N)NC1=O [SEQ ID NO: 101]
Emax [5]: 74% | receptor specificity of agonist ([5]; CLR/RAMP2 versus CLR/RAMP1): CLR/RAMP2-specific | Emax [6]: 129% | Emax [7]: 56%

CCCCCCCCCCCCCCCC(=O)NCCCC[C@H](NC(=O)COCCOCCN)C(=O)N[C@H](C(=O)N[C@@H](CCC(N)=O)C(=O)N[C@@H](CCCCN)C(=O)N[C@@H](CC(C)C)C(=O)N[C@@H](C)C(=O)N[C@@H](Cc1c[nH]cn1)C(=O)N[C@@H](CCC(N)=O)C(=O)N[C@H](C(=O)N[C@@H](Cc1ccc(O)cc1)C(=O)N[C@@H](CO)C(=O)N[C@@H](C)C(=O)N1CCC[C@H]1C(=O)N[C@H](C(=O)N[C@@H](CC(=O)O)C(=O)N1CCC[C@H]1C(=O)N[C@@H](CO)C(=O)N[C@@H](CO)C(=O)N1CCC[C@H]1C(=O)N[C@@H](Cc1c[nH]cn1)C(=O)N[C@@H](CO)C(=O)N[C@@H](Cc1ccc(O)cc1)C(N)=O)C(C)C)[C@@H](C)CC)C(C)C [SEQ ID NO: 114]
pIC50 [3]: 8.04 to 9.10 | receptor specificity of antagonist [4]: CLR/RAMP1-specific

CCCCCCCCCCCCCCCC(=O)NCCCC[C@H](NC(=O)COCCOCCN)C(=O)N[C@H](C(=O)N[C@@H](CCC(N)=O)C(=O)N[C@@H](CCCCN)C(=O)N[C@@H](CC(C)C)C(=O)N[C@@H](C)C(=O)N[C@@H](Cc1c[nH]cn1)C(=O)N[C@@H](CCC(N)=O)C(=O)N[C@H](C(=O)N[C@@H](Cc1ccc(O)cc1)C(=O)N[C@@H](CCC(N)=O)C(=O)N[C@@H](Cc1ccccc1)C(=O)N[C@H](C(=O)N[C@@H](CC(=O)O)C(=O)N[C@@H](CCCCN)C(=O)N[C@@H](CC(=O)O)C(=O)N[C@@H](CCCCN)C(=O)N[C@@H](CC(=O)O)C(=O)N[C@@H](CC(N)=O)C(=O)N[C@@H](CO)C(=O)N[C@@H](C)C(=O)N1CCC[C@H]1C(=O)N[C@H](C(=O)N[C@@H](CC(=O)O)C(=O)N1CCC[C@H]1C(=O)N[C@@H](CO)C(=O)N[C@@H](CO)C(=O)N1CCC[C@H]1C(=O)N[C@@H](Cc1c[nH]cn1)C(=O)N[C@@H](CO)C(=O)N[C@@H](Cc1ccc(O)cc1)C(N)=O)C(C)C)[C@@H](C)O)[C@@H](C)CC)C(C)C [SEQ ID NO: 78] (H-[AEEA]K(Palmitoyl)VQKLAHQIYQFTDKDKDNSAPVDPSSPHSY-NH2)
pIC50 [3]: 8.04 to 9.10

CC[C@H](C)[C@H](NC(=O)[C@H](CCC(N)=O)NC(=O)[C@H](Cc1c[nH]cn1)NC(=O)[C@H](C)NC(=O)[C@H](CC(C)C)NC(=O)[C@H](CCCCN)NC(=O)[C@H](CCC(N)=O)NC(=O)[C@@H](NC(=O)[C@@H](NC(=O)[C@@H]1CSSC[C@H](NC(=O)CNC(=O)[C@H](Cc2ccccc2)NC(C)=O)C(=O)N[C@@H](CCCNC(=N)N)C(=O)N[C@@H](Cc2ccccc2)C(=O)NCC(=O)N[C@@H]([C@@H](C)O)C(=O)N1)[C@@H](C)O)C(C)C)C(=O)N[C@@H](Cc1ccc(O)cc1)C(=O)N[C@@H](CCC(N)=O)C(=O)N[C@@H](Cc1ccccc1)C(=O)N[C@H](C(=O)N[C@@H](CC(=O)O)C(=O)N[C@@H](CCCCN)C(=O)N[C@@H](CC(=O)O)C(=O)N[C@@H](CCCCN)C(=O)N[C@@H](CC(=O)O)C(=O)N[C@@H](CC(N)=O)C(=O)N[C@H](C(=O)N[C@@H](C)C(=O)N1CCC[C@H]1C(=O)N[C@@H](CCCNC(=N)N)C(=O)N[C@@H](CO)C(=O)N[C@@H](CCCCN)C(=O)N[C@H](C(=O)N[C@@H](CO)C(=O)N1CCC[C@H]1C(=O)N[C@@H](CCC(N)=O)C(=O)NCC(=O)N[C@@H](Cc1ccc(O)cc1)C(N)=O)[C@@H](C)CC)C(C)C)[C@@H](C)O [SEQ ID NO: 53, reference compound]
Emax [5]: 102% | HLEC proliferation (in words) [1]: minimal effects; also recorded: negligible effects | Emax [7]: 69% | HLEC survival (in words) [2]: minimal effects; also recorded: negligible effects
